# Values joined by “and” are separate entries in the source; they are usually repeats but may differ in a detail not shown here. Equal entries are not always repeated. “Also recorded” adds a separate entry of the source. Where two headings read alike, the source gives them in different places.
# Legend:
# C. formosanus = experiment: Laboratory termite test, modified ASTM 3345-74, soil/sand culture, NaOH carrier, blocks not leached; assay type: in vivo; conditions: for termite survival / mortality at the end of the test period / Tunneling Activity / Visible Mortality / prevention of termite attack / restriction of termite damage: 4 weeks; for prevention of termite attack / restriction of termite damage: all concentrations used (1-10%); for Mean Rating (termite attack): mean of 4 specimens; for Mean Rating (termite attack) / Termite Attack Rating: 4 weeks soil/sand culture; for Termite Attack Rating: single specimen; for repellent effect (soil covering of test specimens): specimens treated with 5, 7 and 10% solutions only partially soil covered; as to Termite Attack Rating: key: Score 0: No attack; Score 1: Attempted attack; Score 2: Slight attack; Score 3: Average attack; Score 4: Strong attack
# Protocol: A further experiment was undertaken according to the modified ASTM 3345-74 test detailed in Example 2 with the following 6 changes to the protocol:
# 1. The solutions tested were as follows:
# 2. The incubation substrate was a soil/sand mixture (1:1) to which had been added 75 ml of de-ionised water. This substrate was chosen as being more representative of the laboratory conditions under which the wild caught termites (C. formosanus) were maintained.
# 3. The treated timber samples were positioned on plastic mesh on top of the soil substrate. This method of placement is that used in European Standard EN 117 and is more representative of the feeding conditions of the wild caught termites maintained in the laboratory.
# 4. 250 termites were used in each incubation vessel.
# 5. The wood block specimens were not subjected to a leaching process.
# 6. Evidence of termite tunneling activity and mortality was determined at completion of the incubation period only (4 weeks) and no examinations were undertaken for surface activity.
# Coptotermes formosanus = conditions: for Mean Rating (termite attack): mean of 4 specimens; for Mean Rating (termite attack) / Termite Attack Rating: 4 weeks sand culture; for Termite Attack Rating: single specimen;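 as to Termite Attack Rating: score 0 no attack 2 slight 3 average 4 strong attack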
# From the text: A laboratory test was undertaken to determine the toxic values of novel actives against termites. The active materials used were TBBA, TBBE [4,4′-ethylidenebis(2,6-dibromophenol)] [CAS RN=12639-25-3] (Sample Number 1392-82-03); TBBZ [4,4′-cyclohexylidene(2,6-dibromophenol)] [CAS RN=53350-96-2] (Sample Number 1392-72-03) and TBA, 2,2′,6-tribromo-4,4′-isopropylidenediphenol, CAS 6386-73-8 (Sample Number 1392-75-03).
# The test was undertaken largely according to the strictures laid down in ASTM 3345-74 (the American standard laboratory test to assess the termite resistant properties of wood to wood destroying termites). The test method allows for the exposure of treated buried wood blocks to termites (Reticulitermes or Coptotermes spp.) over a period of 4 weeks. Efficacy of the product is determined by the extent of termite damage to the treated timber specimens through a scoring system. The test was slightly modified from the standard ASTM test by reducing the number of replicate wood specimens from 5 to 4.
# Score 1: Attempted attack
# The toxic values of the preservative product (in kg/m^3 of wood) fall between two values as follows:
# 1) The lowest concentration which protects the wood (i.e. the concentration at which none of the test specimens show a degree of attack greater than 1).
# The termites employed were Coptotermes formosanus.
# All wood bock specimens were of Southern Yellow Pine sapwood (Pinus spp.) with dimensions of 25.4×25.4×6.4 mm in accordance with ASTM D3345-74. All blocks were vacuum impregnated with the relevant solutions in accordance with ASTM D3345-74. Distribution of blocks in the test was as follows:
# The test specimens were conditioned and subjected to a leaching schedule (after vacuum impregnation) as stipulated in ASTM D1413-76 (as recommended in ASTM D3345-74). All test specimens were then air dried for two weeks to constant weight.
# The specimens were each positioned at the base of a 500 ml polyethylene culture jar (numbered according to each test specimen) and covered with 200 g of sand (pre-washed, sterilised and air conditioned in the laboratory) to which was added 25 g of de-ionised water. A further two containers containing watered sand but no timber were also prepared. All the jars were sealed (lids pre-pierced and covered with stainless steel mesh for aeration).
# Two days after specimen placement, 200 termites were added to each culture jar (90% workers and 10% soldiers) and the jars re-sealed. The jars were incubated at a mean temperature and relative humidity of 27.5° C. and 75-90% for 4 weeks. The containers were provided with an artificial lighting regime of 10 hours light and 14 hours darkness.
# After 1 week and 4 weeks each container was examined to determine termite mortality and normal tunneling behaviour patterns as follows:
# Is there tunneling present: YES/NO
# Are there any termites on the surface of the soil: YES/NO (if yes how many, i.e. 1-25% of pop, 26-50% of pop, 51-100% of pop.)
# Are any dead termites visible: YES/NO (if yes how many, 1-33%, 34-66%, 67-100%)
# After 4 weeks the test specimens were removed and cleaned of debris. Each block was examined and visually rated for termite damage using the scoring system detailed above.
# [1] = 1 week, solution conc. 1%, ethanol carrier
# [2] = 1 week, solution conc. 3%, ethanol carrier
# [3] = 1 week, solution conc. 5%, ethanol carrier
# [4] = 1 week, solution conc. 7%, ethanol carrier
# [5] = 1 week, solution conc. 10%, ethanol carrier
# [6] = 4 weeks, solution conc. 1%, ethanol carrier
# [7] = 4 weeks, solution conc. 3%, ethanol carrier
# [8] = 4 weeks, solution conc. 5%, ethanol carrier
# [9] = 4 weeks, solution conc. 7%, ethanol carrier
# [10] = 4 weeks, solution conc. 10%, ethanol carrier
# [11] = solution conc. 1%, ethanol carrier
# [12] = solution conc. 3%, ethanol carrier
# [13] = solution conc. 5%, ethanol carrier
# [14] = solution conc. 7%, ethanol carrier
# [15] = solution conc. 10%, ethanol carrier
compound,measurement,setting,value
O=S(=O)(c1cc(Br)c(O)c(Br)c1)c1cc(Br)c(O)c(Br)c1 [TBBS],termiticidal and termite repellent activity (conclusion),C. formosanus,significant termiticidal and termite repellent activity
same,termite survival / mortality at the end of the test period,C. formosanus,significant termite mortality by the end of the test period
same,Tunneling Activity,C. formosanus; solution conc. 1%,Yes
same,Visible Mortality,C. formosanus; solution conc. 1%,67-100%
same,Tunneling Activity,C. formosanus; solution conc. 3%,Yes
same,Visible Mortality,C. formosanus; solution conc. 3%,34-66% and 67-100%
same,Tunneling Activity,C. formosanus; solution conc. 5%,Yes
same,Visible Mortality,C. formosanus; solution conc. 5%,67-100%
same,Tunneling Activity,C. formosanus; solution conc. 7%,Yes
same,Visible Mortality,C. formosanus; solution conc. 7%,67-100% and 100%
same,Tunneling Activity,C. formosanus; solution conc. 10%,Yes
same,Visible Mortality,C. formosanus; solution conc. 10%,34-66% and 67-100%
same,prevention of termite attack / restriction of termite damage,C. formosanus,significant attack was prevented by all concentrations; also recorded: a very significant effect in restricting termite damage
same,Mean Rating (termite attack),C. formosanus; solution conc. 1%,1.00
same,Termite Attack Rating,C. formosanus; solution conc. 1%,1
same,Mean Rating (termite attack),C. formosanus; solution conc. 3%,0.5
same,Termite Attack Rating,C. formosanus; solution conc. 3%,1 and 0
same,Mean Rating (termite attack),C. formosanus; solution conc. 5%,1.00
same,Termite Attack Rating,C. formosanus; solution conc. 5%,1
same,Mean Rating (termite attack),C. formosanus; solution conc. 7%,0.75
same,Termite Attack Rating,C. formosanus; solution conc. 7%,1 and 0
same,Mean Rating (termite attack),C. formosanus; solution conc. 10%,0.25
same,Termite Attack Rating,C. formosanus; solution conc. 10%,0 and 1
same,repellent effect (soil covering of test specimens),C. formosanus,a repellent effect was noted
"Oc1c(Br)cc(C2(c3cc(Br)c(O)c(Br)c3)CCCCC2)cc1Br [TBBZ, 4,4′-cyclohexylidene(2,6-dibromophenol)]",Surface Activity (termites on the surface of the soil),Coptotermes formosanus; [1],No/No
same,Tunneling Activity,Coptotermes formosanus; [1],Yes/Yes
same,Visible Mortality,Coptotermes formosanus; [1],No/No
same,Surface Activity (termites on the surface of the soil),Coptotermes formosanus; [2],No/No
same,Tunneling Activity,Coptotermes formosanus; [2],Yes/Yes
same,Visible Mortality,Coptotermes formosanus; [2],No
same,Surface Activity (termites on the surface of the soil),Coptotermes formosanus; [3],No/No
same,Tunneling Activity,Coptotermes formosanus; [3],Yes/Yes
same,Visible Mortality,Coptotermes formosanus; [3],No
same,Surface Activity (termites on the surface of the soil),Coptotermes formosanus; [4],1-25 % (of pop.)
same,Tunneling Activity,Coptotermes formosanus; [4],Yes/Yes
same,Visible Mortality,Coptotermes formosanus; [4],No
same,Surface Activity (termites on the surface of the soil),Coptotermes formosanus; [5],1-25 % (of pop.)
same,Tunneling Activity,Coptotermes formosanus; [5],Yes/Yes
same,Visible Mortality,Coptotermes formosanus; [5],No
same,Surface Activity (termites on the surface of the soil),Coptotermes formosanus; [6],No/No
same,Tunneling Activity,Coptotermes formosanus; [6],Yes/Yes
same,Visible Mortality,Coptotermes formosanus; [6],No/No
same,Surface Activity (termites on the surface of the soil),Coptotermes formosanus; [7],No/No
same,Tunneling Activity,Coptotermes formosanus; [7],Yes/Yes
same,Visible Mortality,Coptotermes formosanus; [7],1-33 % (of pop.)
same,Surface Activity (termites on the surface of the soil),Coptotermes formosanus; [8],No/No
same,Tunneling Activity,Coptotermes formosanus; [8],Yes/Yes
same,Visible Mortality,Coptotermes formosanus; [8],34-66 % (of pop.)
same,Surface Activity (termites on the surface of the soil),Coptotermes formosanus; [9],No
same,Tunneling Activity,Coptotermes formosanus; [9],Yes/Yes
same,Visible Mortality,Coptotermes formosanus; [9],34-66 % (of pop.)
same,Surface Activity (termites on the surface of the soil),Coptotermes formosanus; [10],No
same,Tunneling Activity,Coptotermes formosanus; [10],Yes/Yes
same,Visible Mortality,Coptotermes formosanus; [10],67-100 % (of pop.)
same,reduction in termite attack,"Coptotermes formosanus; concentrated solutions, followed by leaching",a significant reduction in termite attack; also recorded: the higher concentrations do reduce termite attack
same,repellent effect on termites (surface activity data),Coptotermes formosanus; ethanol carrier,a degree of termite repellency
same,Mean Rating (termite attack),Coptotermes formosanus; [11],2.50
same,Termite Attack Rating,Coptotermes formosanus; [11],4 and 2
same,Mean Rating (termite attack),Coptotermes formosanus; [12],1.50
same,Termite Attack Rating,Coptotermes formosanus; [12],2 and 1
same,Mean Rating (termite attack),Coptotermes formosanus; [13],1.25
same,Termite Attack Rating,Coptotermes formosanus; [13],1 and 2
same,Mean Rating (termite attack),Coptotermes formosanus; [14],1.25
same,Termite Attack Rating,Coptotermes formosanus; [14],1 and 2
same,Mean Rating (termite attack),Coptotermes formosanus; [15],1.25
same,Termite Attack Rating,Coptotermes formosanus; [15],1 and 2
Oc1c(Br)cc(Cc2cc(Br)c(O)c(Br)c2)cc1Br [TBBF],termiticidal and termite repellent activity (conclusion),C. formosanus,significant termiticidal and termite repellent activity
same,termite survival / mortality at the end of the test period,C. formosanus,the majority of the termites were killed by the end of the test period
same,Tunneling Activity,C. formosanus; solution conc. 1%,Yes
same,Visible Mortality,C. formosanus; solution conc. 1%,34-66%
same,Tunneling Activity,C. formosanus; solution conc. 3%,Yes
same,Visible Mortality,C. formosanus; solution conc. 3%,34-66%
same,Tunneling Activity,C. formosanus; solution conc. 5%,Yes
same,Visible Mortality,C. formosanus; solution conc. 5%,67-100%
same,Tunneling Activity,C. formosanus; solution conc. 7%,Yes
same,Visible Mortality,C. formosanus; solution conc. 7%,67-100%
same,Tunneling Activity,C. formosanus; solution conc. 10%,Yes
same,Visible Mortality,C. formosanus; solution conc. 10%,67-100%
same,prevention of termite attack / restriction of termite damage,C. formosanus,significant attack was prevented by all concentrations; also recorded: a very significant effect in restricting termite damage
same,"toxic value, lower (concentration at which the wood is no longer sufficiently protected)","C. formosanus; mean loading, solution concentration 1%, not leached",6.78 kg/m^3
same,"toxic value, upper (lowest concentration which protects the wood)","C. formosanus; mean loading, solution concentration 3% (TBBF) or 1%, not leached",20.53 kg/m^3
same,Mean Rating (termite attack),C. formosanus; solution conc. 1%,1.50
same,Termite Attack Rating,C. formosanus; solution conc. 1%,3 and 1
same,Mean Rating (termite attack),C. formosanus; solution conc. 3%,0.75
same,Termite Attack Rating,C. formosanus; solution conc. 3%,0 and 1
same,Mean Rating (termite attack),C. formosanus; solution conc. 5%,0.5
same,Termite Attack Rating,C. formosanus; solution conc. 5%,0 and 1
same,Mean Rating (termite attack),C. formosanus; solution conc. 7%,0.75
same,Termite Attack Rating,C. formosanus; solution conc. 7%,1 and 0
same,Mean Rating (termite attack),C. formosanus; solution conc. 10%,0.5
same,Termite Attack Rating,C. formosanus; solution conc. 10%,1 and 0
same,repellent effect (soil covering of test specimens),C. formosanus,a repellent effect

# Reference: patent US20040266885A1, “Wood preservative compositions” (priority 2001, published 2004)
